Measurements taken from ChEMBL document CHEMBL1126287, “Analogues of natural phloroglucinols as antagonists against both thromboxane A2 and leukotriene D4” (J Med Chem, 1992).

Tests used:
Type in all cases: functional
Cavia porcellus [1] = species on record: Cavia porcellus; test: Inhibitory concentration of the Compound was tested against LTD4 induced contraction of guinea pig trachea.
Cavia porcellus [2] = species on record: Cavia porcellus; test: Inhibitory activity of the Compound was tested against LTD4 induced contraction of guinea pig trachea at 2*10e-5 M concentration.
Cavia porcellus [3] = species on record: Cavia porcellus; test: Inhibitory activity of the Compound was tested against U-46619 induced contraction of guinea pig trachea at 2*10e-5 M concentration.
Cavia porcellus [4] = species on record: Cavia porcellus; test: Inhibitory activity of the Compound was tested against U-46619 induced contraction of guinea pig trachea at 2*10e-6 M concentration.
Cavia porcellus [5] = species on record: Cavia porcellus; test: Inhibitory activity of the Compound was tested against U-46619 induced contraction of guinea pig trachea.
Cavia porcellus [6] = species on record: Cavia porcellus; test: Inhibitory activity of the Compound was tested against LTD4 induced contraction of guinea pig trachea at 2*10e-6 M concentration.
Cavia porcellus [7] = species on record: Cavia porcellus; test: Inhibitory activity of the Compound was tested against U-46619 induced contraction of guinea pig trachea at 2*10e-7 M concentration.
Cavia porcellus [8] = species on record: Cavia porcellus; test: Inhibitory activity of the Compound was tested against U-46619 induced contraction of 2*10e-5 M concentration.
Cavia porcellus [9] = species on record: Cavia porcellus; test: Inhibitory activity of the Compound was tested against LTD4 induced contraction of guinea pig trachea at 2*10e-7 M concentration.
Cavia porcellus [10] = species on record: Cavia porcellus; test: Inhibitory activity of the Compound was tested against U-46619 induced contraction of guinea pig trachea at 1*10e-6 M concentration.
Cavia porcellus [11] = species on record: Cavia porcellus; test: Inhibitory activity of the Compound was tested against LTD4 induced contraction of guinea pig trachea at 3*10e-7 M concentration.
Cavia porcellus [12] = species on record: Cavia porcellus; test: Inhibitory activity of the Compound was tested against LTD4 induced contraction of guinea pig trachea at 1*10e-6 M concentration.
Cavia porcellus [13] = species on record: Cavia porcellus; test: Inhibitory activity of the Compound was tested against U-46619 induced contraction of guinea pig trachea at 3*10e-7 M concentration.
Cavia porcellus [14] = species on record: Cavia porcellus; test: Inhibitory activity of the Compound was tested against U-46619 induced contraction of guinea pig trachea at 3*10e-6 M concentration.
Cavia porcellus [15] = species on record: Cavia porcellus; test: Inhibitory activity of the Compound was tested against U-46619 induced contraction of guinea pig trachea at 1*10e-5 M concentration.
Cavia porcellus [16] = species on record: Cavia porcellus; test: Inhibitory activity of the Compound was tested against U-46619 induced contraction of guinea pig trachea at 3*10e-8 M concentration.
Cavia porcellus [17] = species on record: Cavia porcellus; test: Inhibitory activity of the Compound was tested against LTD4 induced contraction of guinea pig trachea at 1*10e-5 concentration.
Cavia porcellus [18] = species on record: Cavia porcellus; test: Inhibitory activity of the Compound was tested against LTD4 induced contraction of guinea pig trachea at 2*10e5- M concentration.
Cavia porcellus [19] = species on record: Cavia porcellus; test: Inhibitory activity of the Compound was tested against LTD4 induced contraction of guinea pig trachea at 1*10e-4 M concentration.
Cavia porcellus [20] = species on record: Cavia porcellus; test: Inhibitory activity of the Compound was tested against U-46619 induced contraction of guinea pig trachea at 1*10e-4 M concentration.
Cavia porcellus [21] = species on record: Cavia porcellus; test: Inhibitory activity of the Compound was tested against LTD4 induced contraction of guinea pig trachea at 3*10e-6 M concentration.
Cavia porcellus [22] = species on record: Cavia porcellus; test: Inhibitory activity of the Compound was tested against U-46619 induced contraction of guinea pig trachea at 2 *10e-7 M concentration.
Cavia porcellus [23] = species on record: Cavia porcellus; test: Inhibitory activity of the Compound was tested against LTD4 induced contraction of guinea pig trachea at 1*10e-5 M concentration.
Cavia porcellus [24] = species on record: Cavia porcellus; test: Inhibitory activity of the Compound was tested against U-46619 induced contraction of guinea pig trachea at 2*10e-5 concentration.

Row | SMILES | IC50 (Cavia porcellus [1]) | IC50 (Cavia porcellus [5]) | Inhibition (Cavia porcellus [2]) | Inhibition (Cavia porcellus [3]) | Inhibition (Cavia porcellus [14]) | also measured
1 | CCCC(=O)c1c(O)cc(O)c(C(=O)CCC)c1O | 1400 nM | 2700 nM | 87% | – | – | Inhibition (Cavia porcellus [7]): 8.4%; Inhibition (Cavia porcellus [4]): 57%; Inhibition (Cavia porcellus [8]): 72.5%; Inhibition (Cavia porcellus [6]): 59.4%; Inhibition (Cavia porcellus [9]): 12.5%
2 | CC(C)CC(=O)c1c(O)cc(O)cc1O | – | 4700 nM | – | – | 22.7% | Inhibition (Cavia porcellus [15]): 96.6%
3 | CC(C)C(=O)c1c(C(C)C)nn2ccccc12 [IBUDILAST] | – | – | – | – | – | Inhibition (Cavia porcellus [16]): 85.4%
4 | CCCCCC(=O)c1c(O)cc(O)c(C(=O)CCCCC)c1O | – | – | 43.3% | 25.9% | – | –
5 | CCC(C)C(=O)c1c(O)cc(O)cc1O (stereo not given) | – | 6000 nM | – | – | 13.8% | Inhibition (Cavia porcellus [17]): 25.4%; Inhibition (Cavia porcellus [15]): 76.3%
6 | CC(C)=CCC/C(C)=C/COc1cc(O)c(C(=O)C(C)C)c(O)c1C | – | – | – | 10.8% | – | Inhibition (Cavia porcellus [18]): 12.6%; Inhibition (Cavia porcellus [19]): 50.9%; Inhibition (Cavia porcellus [20]): 50%
7 | CCCCCCCC(=O)c1c(O)cc(O)c(C(=O)CCCCCCC)c1O | – | – | 17.4% | 15.1% | – | –
8 | COC1(OC)C(=O)C(C/C=C(\C)CCC=C(C)C)=C(O)C(CC=C(C)C)=C1O | – | – | 63.6% | 94.9% | – | –
9 | CCCCCC(=O)c1c(O)cc(O)cc1O | 7600 nM | 8900 nM | 93.9% | – | – | Inhibition (Cavia porcellus [23]): 62.3%; Inhibition (Cavia porcellus [24]): 100%; Inhibition (Cavia porcellus [15]): 56.9%
10 | CC(=O)c1c(O)cc(O)c(C(C)=O)c1O | – | – | 39.1% | 44.3% | – | –
11 | CCCC(=O)c1c(O)cc(O)cc1O | – | – | – | – | – | Inhibition (Cavia porcellus [15]): 27.3%

The next lines start with results.

Row | IC50 (Cavia porcellus [1]) | IC50 (Cavia porcellus [5]) | SMILES | Inhibition (Cavia porcellus [2]) | Inhibition (Cavia porcellus [3]) | Inhibition (Cavia porcellus [14]) | also measured
12 | 1400 nM | 1700 nM | CCC(C)C(=O)c1c(O)cc(O)c(C(=O)C(C)CC)c1O (stereo not given) | 80.1% | 98% | – | Inhibition (Cavia porcellus [4]): 34.7%; Inhibition (Cavia porcellus [6]): 45.5%
13 | 350 nM | 310 nM | CCC1(CC)C(=O)C(C(=O)C(C)C)=C(O)C(C(=O)C(C)C)=C1O | – | – | – | Inhibition (Cavia porcellus [10]): 84.2%; Inhibition (Cavia porcellus [11]): 44.9%; Inhibition (Cavia porcellus [12]): 87.8%; Inhibition (Cavia porcellus [13]): 49%
14 | 1200 nM | – | CC(C)C(=O)c1c(O)cc(O)c(C(=O)C(C)C)c1O | 92.3% | 53.6% | – | Inhibition (Cavia porcellus [6]): 48.5%; Inhibition (Cavia porcellus [9]): 28.9%
15 | 570 nM | 580 nM | CC(C)C(=O)C1=C(O)C(C)(C)C(O)=C(C(=O)C(C)C)C1=O | – | – | 80.2% | Inhibition (Cavia porcellus [21]): 87%; Inhibition (Cavia porcellus [4]): 61.2%; Inhibition (Cavia porcellus [22]): 38.5%; Inhibition (Cavia porcellus [6]): 60.7%; Inhibition (Cavia porcellus [9]): 36.8%
16 | – | 6600 nM | CC(C)C(=O)c1c(O)cc(O)cc1O [PHLOROISOBUTYROPHENONE] | – | – | 11% | Inhibition (Cavia porcellus [23]): 32%; Inhibition (Cavia porcellus [15]): 70.4%
17 | 2300 nM | 5600 nM | CCCCCC1(CCCCC)C(=O)C(C(=O)C(C)C)=C(O)C(C(=O)C(C)C)=C1O | 95% | 80.4% | 17% | Inhibition (Cavia porcellus [21]): 58.3%
18 | 12000 nM | – | CCC(=O)c1c(O)cc(O)c(C(=O)CC)c1O | 97.1% | 53.4% | – | Inhibition (Cavia porcellus [6]): 42.5%; Inhibition (Cavia porcellus [9]): 30.8%
19 | 560 nM | 1500 nM | CC(C)CC(=O)c1c(O)cc(O)c(C(=O)CC(C)C)c1O | 100% | 100% | – | Inhibition (Cavia porcellus [7]): 22.6%; Inhibition (Cavia porcellus [4]): 42%; Inhibition (Cavia porcellus [6]): 78.2%; Inhibition (Cavia porcellus [9]): 29.9%
20 | 5900 nM | 6900 nM | CCCC1(CCC)C(=O)C(C(=O)C(C)C)=C(O)C(C(=O)C(C)C)=C1O | 88.5% | 81.7% | 25.3% | Inhibition (Cavia porcellus [21]): 28.5%
21 | 1200 nM | 1800 nM | CCCCC1(CCCC)C(=O)C(C(=O)C(C)C)=C(O)C(C(=O)C(C)C)=C1O | 100% | 91.6% | 58.6% | Inhibition (Cavia porcellus [21]): 66.5%
